Drawing on paper PMC4761905, “A Novel Heterocyclic Compound CE-104 Enhances Spatial Working Memory in the Radial Arm Maze in Rats and Modulates the Dopaminergic System” (Frontiers in Behavioral Neuroscience, 2016), this text covers IC50 for one compound.

In assay [1] the target is T1, dopamine transporter (DAT) (Homo sapiens, UniProt Q01959).
T1 construct: gene SLC6A3
Nature of the assay: [3H]dopamine uptake inhibition in HEK293 cells stably expressing human DAT. In kind it is cell-based.

For assay [2], the target named is T2, norepinephrine transporter (NET) (Homo sapiens, UniProt P23975).
T2 construct: gene SLC6A2
The assay is described as follows: [3H]MPP+ uptake inhibition in HEK293 cells stably expressing human NET. The class given is cell-based.

The structures appear in SMILES notation.

T2 sequence (P23975 whole entry): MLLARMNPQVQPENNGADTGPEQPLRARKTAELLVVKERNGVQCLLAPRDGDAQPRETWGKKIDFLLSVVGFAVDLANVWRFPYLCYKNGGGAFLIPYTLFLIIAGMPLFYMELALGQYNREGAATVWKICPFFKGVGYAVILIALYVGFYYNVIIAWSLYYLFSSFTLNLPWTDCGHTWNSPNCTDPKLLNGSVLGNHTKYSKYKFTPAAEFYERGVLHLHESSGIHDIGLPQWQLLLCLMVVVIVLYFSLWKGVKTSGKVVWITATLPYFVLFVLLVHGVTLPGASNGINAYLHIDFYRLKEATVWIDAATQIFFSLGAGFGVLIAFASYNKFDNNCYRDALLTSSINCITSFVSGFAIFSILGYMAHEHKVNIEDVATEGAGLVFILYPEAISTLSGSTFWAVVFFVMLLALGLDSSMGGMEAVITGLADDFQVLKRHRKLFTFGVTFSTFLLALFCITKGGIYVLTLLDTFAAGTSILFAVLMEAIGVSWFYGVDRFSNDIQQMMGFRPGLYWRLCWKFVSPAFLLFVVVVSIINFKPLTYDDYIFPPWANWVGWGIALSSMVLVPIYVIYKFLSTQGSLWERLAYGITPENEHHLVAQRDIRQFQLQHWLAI
T1 sequence (Q01959 whole entry): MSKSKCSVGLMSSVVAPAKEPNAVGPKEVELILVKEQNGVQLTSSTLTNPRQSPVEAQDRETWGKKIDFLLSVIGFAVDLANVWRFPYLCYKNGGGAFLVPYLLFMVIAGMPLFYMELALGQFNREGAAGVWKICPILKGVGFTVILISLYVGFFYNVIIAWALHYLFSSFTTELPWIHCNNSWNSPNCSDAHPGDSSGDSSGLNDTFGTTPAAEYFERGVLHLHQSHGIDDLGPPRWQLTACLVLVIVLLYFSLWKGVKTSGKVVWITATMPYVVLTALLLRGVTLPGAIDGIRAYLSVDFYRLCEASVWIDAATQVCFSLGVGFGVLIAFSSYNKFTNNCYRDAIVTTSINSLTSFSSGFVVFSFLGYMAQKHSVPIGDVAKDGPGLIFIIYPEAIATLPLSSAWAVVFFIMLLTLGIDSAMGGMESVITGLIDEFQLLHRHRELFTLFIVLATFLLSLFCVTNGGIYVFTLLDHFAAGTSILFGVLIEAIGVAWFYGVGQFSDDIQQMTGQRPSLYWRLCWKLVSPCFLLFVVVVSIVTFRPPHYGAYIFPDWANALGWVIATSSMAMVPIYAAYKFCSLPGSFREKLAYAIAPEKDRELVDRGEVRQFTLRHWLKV

Consider `Cc1csc(C[S+]([O-])C(c2ccccc2)c2ccccc2)n1` (racemic) [CE-104, 2-(benzhydrylsulfinylmethyl)-4-methylthiazole], for which the concentration for half-maximal inhibition (IC50) in assay [1] was 27.9 µM; in assay [2], 160 µM.

The IC50 is the point on the concentration scale where inhibition reaches its midpoint. Read a high IC50 as weaker potency in that assay.
